The record followed here is patent US9617264B2, “2,7-diazaspiro[3.5]nonane compounds” (REMYND NV, priority 2014, dated 2017).

Each structure is given as a SMILES string.

The subject of the assay is M17_3SYN cells. Kind of assay: Paraquat-induced cytotoxicity (LDH) in α-synuclein over-expressing M17_3SYN neuroblastoma cells. The class given is cell-based. As to conditions: Homo sapiens, Neuroblastoma cell, 48 h, 6 mM Paraquat, 2 days, LDH toxicity inhibition, read-out: SYN EC50. From the text: A α-synuclein expression plasmid was constructed by subcloning the NcoI/XhoI fragment from 212T-SYN(WT) (Griffioen et al., Biochem Biophys Acta (2006) 1762(3):312-318) containing the cDNA of human wild type α-synuclein correspondingly into a standard mammalian expression vector pcDNA3.1 resulting in plasmid pcDNA3.1-SYNwt. Plasmids pcDNA3.1 and pcDNA3.1-SYNwt were transfected into human neuroblastoma cells (BE-M17; ATCC No. CRL-2267™) using lipofectamine reagent and subsequently, independent clonal cell lines with the plasmids stably integrated into the genome were selected by antibiotic resistance selection (Geneticin (G418)), resulting in cell lines M17.pcDNA3 and M17_3SYN. Overexpression of α-synuclein in the M17_3SYN cell line was confirmed by Western blot analysis.
Due to the high levels of α-synuclein, M17_3SYN cells were sensitive to paraquat, a well-known risk factor Parkinson's disease and of synuclein-dependent neuronal degeneration. Cytotoxicity of cells was measured by quantification of lactate dehydrogenase (LDH) levels. In dead cells, LDH leaked out of the cells into the medium due to a loss of plasma-membrane integrity.
Three days preceding the experiment, primary pre-cultures of M17.pcDNA3 (as possible control) and M17_3SYN cells were prepared, starting from a stock culture, at a density of 20.000-40.000 cells/cm2 in culture medium (Opti-MEM® Reduced Serum Medium with Phenol Red (Invitrogen, Cat. 31985-047) supplemented with 10% FCS, 1 mM sodium pyruvate, 1×NEAA, 500 μg/ml G418 and 0.5× antibiotic/antimycotic (ABAM)). 3 days later these primary pre-cultures were used as a starting point to make secondary pre-cultures at a density of 50.000-100.000 cells/cm^2. At the day of the experiment these secondary precultures were diluted to ˜0.5·10^6 cells/ml in detection medium (Opti-MEM® Reduced-Serum Medium without Phenol Red (Invitrogen, Cat. 11085-021) supplemented with 10% FCS, 1 mM sodium pyruvate, 1×NEAA, 500 μg/ml G418 and 0.5×ABAM) and 60 μL of this suspension was dispensed per well into a 96-well microtiter plate. After 3 hours of incubation at 37° C./5% CO2 an equal volume of detection medium containing a final concentration of 6 mM Paraquat was added and subsequently incubated for 2 days at 37° C./5% CO2. Then LDH activity was determined using the Promega Cytotox 96 Non-Radioactive cytotoxicity assay (Promega, Cat. G1780), according to the manufacturer's instructions. Cytotoxicity was defined as the ratio of LDH relative to the total LDH in the cells and supernatant.
The assay described above using the M17_3SYN cell line allowed screening compounds for their ability to decrease cytotoxicity in PQ-challenged cells. Compounds of the invention were tested for their ability to decrease toxicity at different concentrations, ranging from low non-effective concentrations to high effective concentrations. Afterwards, a dose-dependent inhibition curve was used to calculate the EC50. A compound was considered to be active in this test when it inhibited toxicity by more than 20% relative to untreated M17_3SYN cells at a concentration of […] or lower.

With `COc1ccc(S(=O)(=O)N2CCC3(CC2)CN(S(=O)(=O)c2ccc(F)cc2)C3)cc1` [Cmpd002, 2-((4-Fluorophenyl)sulfonyl)-7-((4-methoxyphenyl)sulfonyl)-2,7-diazaspiro[3.5]nonane], the 50% effective concentration (EC50) was found to be 25.8 nM.
For `COc1ccc(S(=O)(=O)N2CCC3(CC2)CN(C(=O)C(C)(C)c2ccccc2)C3)cc1` [Cmpd013, 1-(7-((4-Methoxyphenyl)sulfonyl)-2,7-diazaspiro[3.5]nonan-2-yl)-2-methyl-2-phenylpropan-1-one] the value was 44.4 nM; for `COc1ccc(S(=O)(=O)N2CCC3(CC2)CN(C(=O)C(C)(C)c2cccc(OC)c2)C3)cc1` [Cmpd016, 2-(3-Methoxyphenyl)-1-(7-((4-methoxyphenyl)sulfonyl)-2,7-diazaspiro[3.5]nonan-2-yl)-2-methylpropan-1-one], 29.3 nM; for `COc1ccc(S(=O)(=O)N2CCC3(CC2)CN(c2nc(Cc4ccc(Cl)cc4)ns2)C3)cc1` [Cmpd032, 3-(4-Chlorobenzyl)-5-(7-((4-methoxyphenyl)sulfonyl)-2,7-diazaspiro[3.5]nonan-2-yl)-1,2,4-thiadiazole], 170 nM.
For the compound `COc1ccc(S(=O)(=O)N2CCC3(CC2)CN(c2nc(Cc4ccc(F)c(F)c4)ns2)C3)cc1` [Cmpd033, 3-(3,4-Difluorobenzyl)-5-(7-((4-methoxyphenyl)sulfonyl)-2,7-diazaspiro[3.5]nonan-2-yl)-1,2,4-thiadiazole], the 50% effective concentration (EC50) stood at 332 nM.
For `CCCCc1nsc(N2CC3(CCN(S(=O)(=O)c4ccc(OC)cc4)CC3)C2)n1` [Cmpd035, 3-Butyl-5-(7-((4-methoxyphenyl)sulfonyl)-2,7-diazaspiro[3.5]nonan-2-yl)-1,2,4-thiadiazole] the value was 326 nM; for `COc1ccc(S(=O)(=O)N2CCC3(CC2)CN(c2nc(Cc4cccc(C(F)(F)F)c4)ns2)C3)cc1` [Cmpd036, 5-(7-((4-Methoxyphenyl)sulfonyl)-2,7-diazaspiro[3.5]nonan-2-yl)-3-(3-(trifluoromethyl)benzyl)-1,2,4-thiadiazole], 499 nM.
In the case of `CSc1ccc(S(=O)(=O)N2CCC3(CC2)CN(c2nc(Cc4ccc(F)cc4)ns2)C3)cc1` [Cmpd041, 3-(4-Fluorobenzyl)-5-(7-((4-(methylthio)phenyl)sulfonyl)-2,7-diazaspiro[3.5]nonan-2-yl)-1,2,4-thiadiazole] it was 177 nM; in that of `CCOc1ccc(S(=O)(=O)N2CCC3(CC2)CN(S(=O)(=O)c2ccc(OC)cc2)C3)cc1` [Cmpd046, 7-((4-Ethoxyphenyl)sulfonyl)-2-((4-methoxyphenyl)sulfonyl)-2,7-diazaspiro[3.5]nonane], 3.3 nM.
In the case of `COc1ccc(S(=O)(=O)N2CCC3(CC2)CN(c2nc4ccc(Cl)cc4s2)C3)cc1` [Cmpd052, 6-Chloro-2-(7-((4-methoxyphenyl)sulfonyl)-2,7-diazaspiro[3.5]nonan-2-yl)benzo[d]thiazole] it was 463 nM.
For `O=S(=O)(c1ccc(OC(F)F)cc1)N1CCC2(CC1)CN(c1nc3ccc(Cl)cc3s1)C2` [Cmpd054, 6-Chloro-2-(7-((4-(difluoromethoxy)phenyl)sulfonyl)-2,7-diazaspiro[3.5]nonan-2-yl)benzo[d]thiazole], the concentration for a half-maximal effect (EC50) came out at 406 nM.
In the case of `CSc1ccc(S(=O)(=O)N2CCC3(CC2)CN(c2nc4ccc(Cl)cc4s2)C3)cc1` [Cmpd055, 6-Chloro-2-(7-((4-(methylthio)phenyl)sulfonyl)-2,7-diazaspiro[3.5]nonan-2-yl)benzo[d]thiazole] it was 334 nM; in that of `COc1ccc(S(=O)(=O)N2CCC3(CC2)CN(c2nc(Cc4ccc(F)cc4)ns2)C3)cc1` [Cmpd057, 3-(4-Fluorobenzyl)-5-(7-((4-methoxyphenyl)sulfonyl)-2,7-diazaspiro[3.5]nonan-2-yl)-1,2,4-thiadiazole], 1.9 nM; in that of `COc1ccc(S(=O)(=O)N2CCC3(CC2)CN(c2nc(Cc4ccc(F)cc4)ns2)C3)cc1OC` [Cmpd061, 5-(7-((3,4-Dimethoxyphenyl)sulfonyl)-2,7-diazaspiro[3.5]nonan-2-yl)-3-(4-fluorobenzyl)-1,2,4-thiadiazole], 320 nM.
In the case of `COc1ccc(C)cc1S(=O)(=O)N1CCC2(CC1)CN(c1nc(Cc3ccc(F)cc3)ns1)C2` [Cmpd062, 3-(4-Fluorobenzyl)-5-(7-((2-methoxy-5-methylphenyl)sulfonyl)-2,7-diazaspiro[3.5]nonan-2-yl)-1,2,4-thiadiazole] it was 342 nM; in that of `O=S(=O)(c1cccc(C(F)(F)F)c1)N1CCC2(CC1)CN(c1nc(Cc3ccc(F)cc3)ns1)C2` [Cmpd064, 3-(4-Fluorobenzyl)-5-(7-((3-(trifluoromethyl)phenyl)sulfonyl)-2,7-diazaspiro[3.5]nonan-2-yl)-1,2,4-thiadiazole], 1070 nM; in that of `Cc1cccc(S(=O)(=O)N2CCC3(CC2)CN(c2nc(Cc4ccc(F)cc4)ns2)C3)c1` [Cmpd066, 3-(4-Fluorobenzyl)-5-(7-(m-tolylsulfonyl)-2,7-diazaspiro[3.5]nonan-2-yl)-1,2,4-thiadiazole], 399 nM.
For `CCc1ccc(S(=O)(=O)N2CCC3(CC2)CN(c2nc(Cc4ccc(F)cc4)ns2)C3)cc1` [Cmpd068, 5-(7-((4-Ethylphenyl)sulfonyl)-2,7-diazaspiro[3.5]nonan-2-yl)-3-(4-fluorobenzyl)-1,2,4-thiadiazole] the value was 399 nM; for `Cc1ccccc1S(=O)(=O)N1CCC2(CC1)CN(c1nc(Cc3ccc(F)cc3)ns1)C2` [Cmpd069, 3-(4-Fluorobenzyl)-5-(7-(o-tolylsulfonyl)-2,7-diazaspiro[3.5]nonan-2-yl)-1,2,4-thiadiazole], 182 nM.
In the case of `O=S(=O)(c1cccc(F)c1)N1CCC2(CC1)CN(c1nc(Cc3ccc(F)cc3)ns1)C2` [Cmpd071, 3-(4-Fluorobenzyl)-5-(7-((3-fluorophenyl)sulfonyl)-2,7-diazaspiro[3.5]nonan-2-yl)-1,2,4-thiadiazole], the half-maximal effective concentration (EC50) turned out to be 441 nM.
For `COc1ccc(OC)c(S(=O)(=O)N2CCC3(CC2)CN(c2nc(Cc4ccc(F)cc4)ns2)C3)c1` [Cmpd072, 5-(7-((2,5-Dimethoxyphenyl)sulfonyl)-2,7-diazaspiro[3.5]nonan-2-yl)-3-(4-fluorobenzyl)-1,2,4-thiadiazole] the value was 212 nM; for `O=S(=O)(c1cc(F)ccc1F)N1CCC2(CC1)CN(c1nc(Cc3ccc(F)cc3)ns1)C2` [Cmpd073, 5-(7-((2,5-Difluorophenyl)sulfonyl)-2,7-diazaspiro[3.5]nonan-2-yl)-3-(4-fluorobenzyl)-1,2,4-thiadiazole], 217 nM; for `O=S(=O)(c1c(F)cccc1F)N1CCC2(CC1)CN(c1nc(Cc3ccc(F)cc3)ns1)C2` [Cmpd074, 5-(7-((2,6-Difluorophenyl)sulfonyl)-2,7-diazaspiro[3.5]nonan-2-yl)-3-(4-fluorobenzyl)-1,2,4-thiadiazole], 260 nM.
For `COc1cccc(S(=O)(=O)N2CCC3(CC2)CN(c2nc(Cc4ccc(F)cc4)ns2)C3)c1` [Cmpd076, 3-(4-Fluorobenzyl)-5-(7-((3-methoxyphenyl)sulfonyl)-2,7-diazaspiro[3.5]nonan-2-yl)-1,2,4-thiadiazole] the value was 394 nM.
For `Cc1ccc(F)cc1S(=O)(=O)N1CCC2(CC1)CN(c1nc(Cc3ccc(F)cc3)ns1)C2` [Cmpd077, 5-(7-((5-Fluoro-2-methylphenyl)sulfonyl)-2,7-diazaspiro[3.5]nonan-2-yl)-3-(4-fluorobenzyl)-1,2,4-thiadiazole], the 50% effective concentration (EC50) is 235 nM.
In the case of `COc1ccccc1S(=O)(=O)N1CCC2(CC1)CN(c1nc(Cc3ccc(F)cc3)ns1)C2` [Cmpd080, 3-(4-Fluorobenzyl)-5-(7-((2-methoxyphenyl)sulfonyl)-2,7-diazaspiro[3.5]nonan-2-yl)-1,2,4-thiadiazole] it was 501 nM.
In the case of `O=S(=O)(c1cc(F)cc(F)c1)N1CCC2(CC1)CN(c1nc(Cc3ccc(F)cc3)ns1)C2` [Cmpd083, 5-(7-((3,5-Difluorophenyl)sulfonyl)-2,7-diazaspiro[3.5]nonan-2-yl)-3-(4-fluorobenzyl)-1,2,4-thiadiazole] it was 375 nM.

For orientation: EC50 means the concentration giving half of the maximal effect.
